According to ChEMBL document CHEMBL1156431, “15-deoxyspergualin primarily targets the trafficking of apicoplast proteins in Plasmodium falciparum” (J Biol Chem, 2007):
Calls of active or inactive are those of the source. No cut-off for these calls is given here.

Tests used:
Plasmodium falciparum [1] = experiment: Inhibition of fatty acid synthesis in Plasmodium falciparum FCK2 trophozoites at 10 uM; assay type: functional, organism-based
Plasmodium falciparum [2] = experiment: Growth inhibition as apicoplast copy number of Plasmodium falciparum FCK2 at 100 nM by [3H]hypoxanthine uptake; assay type: functional
Plasmodium falciparum [3] = experiment: TufA expression level in Plasmodium falciparum FCK2 first asexual cycle; assay type: functional, organism-based
Plasmodium falciparum [4] = experiment: Inhibition of fatty acid synthesis in late trophozoite Plasmodium falciparum FCK2 at 1 uM; assay type: functional, organism-based
[5] = Inhibition of spermidine transporter-mediated [3H]spermidine transport in human red blood cells; assay type: cell-based
Plasmodium falciparum [6] = experiment: Inhibition of protein synthesis in Plasmodium falciparum FCK2 by [35S]methionine uptake; assay type: functional, organism-based
Plasmodium falciparum [7] = experiment: Antimalarial activity against Plasmodium falciparum FCK2 by [3H]hypoxanthine uptake; assay type: functional, organism-based
[8] = Inhibition of putrescine transporter-mediated [3H]putrescine transport in Plasmodium falciparum FCK2 infected human red blood cells
Plasmodium falciparum [9] = experiment: Antimalarial activity against Plasmodium falciparum FCK2 infected human erythrocytes with exogenous spermidine; assay type: functional, organism-based
Plasmodium falciparum [10] = experiment: Growth inhibition of Plasmodium falciparum FCK2 as apicoplast copy numbers at 1 uM in [3H]hypoxanthine uptake; assay type: functional
[11] = Inhibition of putrescine transporter-mediated [3H]putrescine transport in human red blood cells; assay type: cell-based
Plasmodium falciparum [12] = experiment: Antimalarial activity as reduced parasitaemia after 12 hrs against Plasmodium falciparum FCK2 second asexual cycle at 1 uM by [3H]hypoxanthine uptake; assay type: functional, organism-based
Plasmodium falciparum [13] = experiment: Actin expression level in Plasmodium falciparum FCK2; assay type: functional, organism-based
Plasmodium falciparum [14] = experiment: Inhibition of fatty acid synthesis in Plasmodium falciparum FCK2 ring stage at 1 uM; assay type: functional, organism-based
Plasmodium falciparum [15] = experiment: Decreased processed NEAT protein FabG level in Plasmodium falciparum FCK2 first asexual cycle; assay type: functional, organism-based
Plasmodium falciparum [16] = experiment: Inhibition of fatty acid synthesis in Plasmodium falciparum FCK2 trophozoites at 1 uM; assay type: functional, organism-based
Plasmodium falciparum [17] = experiment: Inhibition of spermidine transporter-mediated [3H]spermidine transport in Plasmodium falciparum FCK2 infected human red blood cells at 1 mM
Plasmodium falciparum [18] = experiment: Inhibition of fatty acid synthesis in Plasmodium falciparum FCK2 shizonts at 1 uM; assay type: functional, organism-based

Structure (SMILES)	Activity (Plasmodium falciparum [1])	Activity (Plasmodium falciparum [2])	Activity (Plasmodium falciparum [3])	Activity (Plasmodium falciparum [4])	IC50 [5]	IC50 (Plasmodium falciparum [6])	IC50 (Plasmodium falciparum [7])	IC50 [8]	Activity (Plasmodium falciparum [9])	Activity (Plasmodium falciparum [10])	IC50 [11]	Activity (Plasmodium falciparum [12])	Activity (Plasmodium falciparum [13])	Activity (Plasmodium falciparum [14])	Activity (Plasmodium falciparum [15])	Activity (Plasmodium falciparum [16])	Activity (Plasmodium falciparum [17])	Activity (Plasmodium falciparum [18])
Oc1cc(Cl)ccc1Oc1ccc(Cl)cc1Cl	Active	–	–	–	–	–	–	–	–	–	–	–	–	–	–	–	–	–
CCC[C@@H]1C[C@@H](C(=O)N[C@@H]([C@H]2O[C@H](SC)[C@H](O)[C@@H](O)[C@H]2O)[C@H](C)Cl)N(C)C1 [CLINDAMYCIN]	–	0.4	Active	–	–	–	–	–	–	–	–	–	–	–	–	–	–	–
N=C(N)NCCCCCCC(=O)NC(O)C(=O)NCCCCNCCCN (centres undefined) [GUSPERIMUS]	–	–	inactive	inactive	372 µM	443 µM	0.148 µM	1120 µM	Active	0.13	924 µM	inactive	inactive	inactive	Active	inactive	inactive	Active
